From patent US20210278408A1, “METHODS OF TREATMENT OF CANCER WITH SUBSTITUTED PYRROLE AND PYRAZOLE COMPOUNDS AND DIAGNOSIS OF CANCERS SUSCEPTIBLE TO TREATMENT WITH SUBSTITUTED PYRROLE AND PYRAZOLE COMPOUNDS” (Bantam Pharmaceutical, LLC, priority 2018, published 2021)
pIC50: −log10 of the molar value. Like-named read-outs stand apart in the source and are kept apart here.

System: 407 cancer cell lines
Assay: Cell viability of cancer cell lines (IC50), CellTiter-Glo Viability Assay, 96 h
Assay type: cell-based
Conditions: for pIC50: read-out: Absolute IC50
Description: Viability was determined by using the 50% inhibitory concentration (IC50) as determined with the CellTiter-Glo® Viability Assay (Promega).
Experiments were initiated by first thawing and equilibrating the CellTiter-Glo® Buffer to room temperature. The lyophilized CellTiter-Glo® Substrate was also equilibrated to room temperature. The lyophilized substrate was reconstituted with the CellTiter-Glo® buffer to form the CellTiter-Glo® Reagent.
Cells were harvested during the logarithmic growth period, counted, and the cell concentration adjusted to 4.44×10^4 cells/mL using culture medium.
Cells were allowed to grow overnight and the following day, the TO reading was obtained by adding 10 μL culture medium to each well of Plate A. The plate was allowed to equilibrate at room temperature for thirty minutes, after which 50 μL CellTiter-Glo® reagent was added to each well. The contents were mixed for 5 min on an orbital shaker to induce cell lysis. Plates were incubated for 20 minutes to stabilize the luminescent signal and the TO luminescence recorded.
Test plate B was incubated for 96 h in the humidified incubator at 37° C. with 5% CO2.
Following the incubation, the plate was equilibrated at room temperature for thirty minutes. CellTiter-Glo® (50 μL) was added to each well of the plate and contents mixed for five minutes on an orbital shaker to induce cell lysis. The luminescent signal was allowed to stabilize at room temperature for 20 minutes and the luminescence recorded.
IC50 (EC50) was calculated using a dose-response curve, fitted using a nonlinear regression model with a sigmoidal dose response. Survival rate was calculated using the formula:
The Surviving rate (%)=(LumTest article−LumMedium control)/(LumNon-treated−LumMedium control)×100%.
Absolute IC50 (EC50) was calculated according to the dose-response curve generated by the statistical software (GraphPad Prism 5.0).

Structure (SMILES): Cc1nn(-c2nc(-c3ccc(C(F)(F)F)cc3)c(SC(C)C)s2)c(C(=O)O)c1-c1cccc(F)c1 [Compound A197, 4-(3-fluorophenyl)-1-(5-(isopropylthio)-4-(4-(trifluoromethyl)phenyl)thiazol-2-yl)-3-methyl-1H-pyrazole-5-carboxylic acid]
- pIC50 (Homo sapiens, TT, 96 h, TT cells, 96 h): 5.68
- pIC50 (Homo sapiens, Toledo, 96 h, Toledo cells, 96 h): 5.84
- pIC50 (Homo sapiens, U2OS, 96 h, U-2 OS cells, 96 h): 4.78
- pIC50 (Homo sapiens, U2932, 96 h, U-2932 cells, 96 h): 6.34
- pIC50 (Homo sapiens, U-87 MG, 96 h, U-87 MG cells, 96 h): 4.60
- pIC50 (Homo sapiens, U-251, 96 h, U251 cells, 96 h): 6.55
- pIC50 (Homo sapiens, U-937, 96 h, U-937 cells, 96 h): 6.39
- pIC50 (Homo sapiens, UACC-812, 96 h, UACC-812 cells, 96 h): < 4.52
- pIC50 (Homo sapiens, UMUC3, 96 h, UM-UC-3 cells, 96 h): 6.03
- pIC50 (Homo sapiens, UO-31, 96 h, UO.31 cells, 96 h): < 4.52
- pIC50 (Homo sapiens, WM 266-4, 96 h, WM-266-4 cells, 96 h): < 4.52
- pIC50 (Homo sapiens, WSU-NHL, 96 h, WSU-NHL cells, 96 h): 6.32
- pIC50 (Homo sapiens, WSUDLCL2, 96 h, WSU-DLCL2 cells, 96 h): 6.17
- pIC50 (Homo sapiens, Y79, 96 h, Y-79 cells, 96 h): < 4.52
- pIC50 (Homo sapiens, Z-138, Z-138): 5.82
- pIC50 (Homo sapiens, ZR-75-1, ZR-75-1): 5.11
- pIC50 (Homo sapiens, ZR-75-30, 96 h): < 4.52
- % inhibition at top conc. (HuCCT1, 96 h): 51.19%
- % inhibition at top conc. (Ishikawa, 96 h): 82.51%
- pIC50 (JAR): 6.17
- % inhibition at top conc. (JEG-3 cells, 96 h): 52.54%
- pIC50 (JHH1, 96 h, JHH-1 cells, 96 h): < 4.52
- pIC50 (JHH7, 96 h, JHH-7 cells, 96 h): 6.18
- pIC50 (JHH-4, 96 h, JHH-4 cells, 96 h): 5.82
- pIC50 (JVM13, JVM-13): 6.41
- % inhibition at top conc. (KATO III, 96 h): 45.89%
- pIC50 (KPL4, KPL-4): 6.60
- pIC50 (L-82, L-82): 5.42
- % inhibition at top conc. (LNCaP clone FGC, 96 h): 76.07%
- pIC50 (Li-7, Li-7): 6.07
- % inhibition at top conc. (MDA-MB-436, 96 h): 54.72%
- % inhibition at top conc. (MKN1 cells, 96 h): 53.97%
- % inhibition at top conc. (MKN45, 96 h): 14.51%
- % inhibition at top conc. (MKN74 cells, 96 h): 52.90%
- pIC50 (MM.1R): 5.92
- pIC50 (MOLM16, 96 h, MOLM-16 cells, 96 h): 6.46
- pIC50 (MS751, 96 h, MS751 cells, 96 h): < 4.52
- pIC50 (NAMALWA CSN/70): 6.31
- % inhibition at top conc. (NCI-H69 cells, 96 h): 21.37%
- % inhibition at top conc. (NCI-H82, 96 h): 92.52%
- % inhibition at top conc. (NCI-H146 cells, 96 h): 37.67%
- % inhibition at top conc. (NCI-H209 cells, 96 h): 45.11%
- % inhibition at top conc. (NCI-H292 cells, 96 h): 54.61%
- pIC50 (NCI-H322, 96 h, NCI-H322 cells, 96 h): 6.54
- % inhibition at top conc. (NCI-H358 cells, 96 h): 68.44%
- % inhibition at top conc. (NCI-H446 cells, 96 h): 51.21%
- % inhibition at top conc. (NCI-H460 cells, 96 h): 49.03%
- % inhibition at top conc. (NCI-H520 cells, 96 h): 76.45%
- % inhibition at top conc. (NCI-H526 cells, 96 h): 44.57%
- % inhibition at top conc. (NCI-H727 cells, 96 h): 35.60%
- pIC50 (NCI-H820, 96 h, NCI-H820 cells, 96 h): 6.46
- % inhibition at top conc. (NCI-H820 cells, 96 h): 78.69%
- % inhibition at top conc. (NCI-H1048 cells, 96 h): 66.49%
- % inhibition at top conc. (NCI-H1155 cells, 96 h): 79.14%
- % inhibition at top conc. (NCI-H1299 cells, 96 h): 83.01%
- pIC50 (NCI-H1435, NCI-H1435): 6.41
- pIC50 (NCI-H1568, 96 h, NCI-H1568 cells, 96 h): 6.57
- % inhibition at top conc. (NCI-H1648 cells, 96 h): 57.33%
- % inhibition at top conc. (NCI-H1651 cells, 96 h): 67.37%
- pIC50 (NCI-H1688, NCI-H1688): < 4.52
- % inhibition at top conc. (NCI-H1703 cells, 96 h): 73.10%
- pIC50 (NCI-H1781, 96 h, NCI-H1781 cells, 96 h): < 4.52
- % inhibition at top conc. (NCI-H1792 cells, 96 h): 68.85%
- pIC50 (NCI-H1915, 96 h, NCI-H1915 cells, 96 h): < 4.52
- % inhibition at top conc. (NCI-H1975 cells, 96 h): 25.02%
- % inhibition at top conc. (NCI-H1993 cells, 96 h): 78.76%
- % inhibition at top conc. (NCI-H2087 cells, 96 h): 50.14%
- % inhibition at top conc. (NCI-H2170 cells, 96 h): 75.97%
- % inhibition at top conc. (NCI-H2228 cells, 96 h): 54.12%
- % inhibition at top conc. (NCI-N87, 96 h): 54.19%
- pIC50 (NK-92MI): 5.18
- pIC50 (NOZ): 6.15
- % inhibition at top conc. (NUGC-3 cells, 96 h): 63.39%
- % inhibition at top conc. (NUGC-4 cells, 96 h): 62.77%
- pIC50 (OCUG-1, OCUG-1): 5.90
- pIC50 (OCUM1, 96 h, OCUM-1 cells, 96 h): < 4.52
- % inhibition at top conc. (OCUM-1 cells, 96 h): 19.71%
- % inhibition at top conc. (OCUM-2D cells, 96 h): 65.33%
- % inhibition at top conc. (OCUM-2M cells, 96 h): 66.13%
- % inhibition at top conc. (OE19, 96 h): 53.21%
- pIC50 (OSC19, 96 h, OSC-19 cells, 96 h): < 4.52
- % inhibition at top conc. (OVCAR-3 cells, 96 h): 46.65%
- % inhibition at top conc. (OVCAR-8 cells, 96 h): 75.04%
- pIC50 (OZ): < 4.52
- % inhibition at top conc. (PC-9 cells, 96 h): 52.79%
- pIC50 (PEER): 5.73
- pIC50 (PL45, PL45): 5.92
- pIC50 (RD-ES): < 4.52
- % inhibition at top conc. (RPMI-2650 cells, 96 h): 52.41%
- % inhibition at top conc. (RT4 cells, 96 h): 49.68%
- % inhibition at top conc. (SCC-4, 96 h): 26.22%
- % inhibition at top conc. (SCH cells, 96 h): 53.08%
- pIC50 (SF763, SF-763): 6.12
- % inhibition at top conc. (SK-MEL-5, 96 h): 25.67%
- % inhibition at top conc. (SK-MEL-28, 96 h): 13.20%
- % inhibition at top conc. (SK-OV-3 cells, 96 h): 34.62%
- pIC50 (SNU620, 96 h, SNU-620 cells, 96 h): < 4.52
- pIC50 (SNU668, 96 h, SNU-668 cells, 96 h): < 4.52
- % inhibition at top conc. (SNU-1 cells, 96 h): 74.67%
- % inhibition at top conc. (SNU-5, 96 h): 54.08%
- pIC50 (SNU-81): < 4.52
- pIC50 (SNU-216, 96 h, SNU-216 cells, 96 h): < 4.52
- pIC50 (SNU-368): < 4.52
- pIC50 (SNU-484, 96 h, SNU-484 cells, 96 h): < 4.52
- % inhibition at top conc. (SNU-484 cells, 96 h): 45.94%
- pIC50 (SNU-601, 96 h, SNU-601 cells, 96 h): 6.31
- % inhibition at top conc. (SNU-601 cells, 96 h): 67.28%
- % inhibition at top conc. (SNU-638 cells, 96 h): 56.77%
- % inhibition at top conc. (SNU-719 cells, 96 h): 32.64%
- pIC50 (SNU-739, SNU-739): 4.68
- % inhibition at top conc. (SNU-761 cells, 96 h): 59.03%
- % inhibition at top conc. (SNU-2535 cells, 96 h): 46.87%
- pIC50 (SNU-C2A): 6.24
- pIC50 (SW579, 96 h, SW579 cells, 96 h): < 4.52
- % inhibition at top conc. (SW684 cells, 96 h): 4.22%
- % inhibition at top conc. (SW948 cells, 96 h): 46.17%
- pIC50 (SW1271, SW1271): < 4.52
- pIC50 (U266B1): < 4.52
- % inhibition at top conc. (UACC-812 cells, 96 h): 20.05%
- % inhibition at top conc. (YCC-1 cells, 96 h): 29.02%
- % inhibition at top conc. (YCC-6 cells, 96 h): 56.86%
- % inhibition at top conc. (YCC-10, 96 h): 38.86%
- pIC50 (YCC-11, 96 h, YCC-11 cells, 96 h): < 4.52
- % inhibition at top conc. (YCC-11 cells, 96 h): 48.65%
- % inhibition at top conc. (ZR-75-30, 96 h): 10.01%
